Measured values taken from PubChem BioAssay (NCI).
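Grown in 96-well plates, cells were treated for 48 hours with each compound at five concentrations. Insufficient inhibition: endpoint recorded as highest concentration tested. GI50 is the concentration that inhibits growth by half. At the TGI there is no net growth.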

Legend:
Experiment in all cases: inhibition of tumour cell growth, NCI panel, 48 h
[1] = system: SF-539 CNS
[2] = system: SK-MEL-5 melanoma
[3] = system: UACC-257 melanoma
[4] = system: SN12C renal
[5] = system: TK-10 renal
[6] = system: U251 CNS
[7] = system: MCF7 breast
[8] = system: MOLT-4 leukemia
[9] = system: IGROV1 ovarian
[10] = system: SNB-19 CNS
[11] = system: UO-31 renal
[12] = system: NCI-H23 lung
[13] = system: EKVX NSCLC
[14] = system: SNB-75 CNS
[15] = system: NCI-H226 lung
[16] = system: T-47D breast
[17] = system: MDA-MB-231 breast
[18] = system: HS 578T breast
[19] = system: NCI-H522 lung
[20] = system: RPMI-8226 leukemia
[21] = system: ACHN renal
[22] = system: HT29 colon
[23] = system: DU-145 prostate
[24] = system: PC-3 prostate
[25] = system: HOP-92 NSCLC
[26] = system: MDA-MB-435
[27] = system: HCT-116 colon
[28] = system: SK-MEL-28 melanoma
[29] = system: SW-620 colon
[30] = system: MALME-3M melanoma
[31] = system: LOX IMVI melanoma
[32] = system: RXF 393 renal
[33] = system: BT-549 breast
[34] = system: NCI-H460 lung
[35] = system: HCC-2998 colon
[36] = system: SF-268 CNS
[37] = system: UACC-62 melanoma
[38] = system: OVCAR-5 ovarian
[39] = system: K-562 leukemia
[40] = system: HL-60(TB) leukemia
[41] = system: HOP-62 NSCLC
[42] = system: CCRF-CEM leukemia
[43] = system: NCI/ADR-RES ovarian
[44] = system: SK-MEL-2 melanoma
[45] = system: M14 melanoma
[46] = system: OVCAR-3 ovarian
[47] = system: CAKI-1 renal
[48] = system: A549 NSCLC
[49] = system: SF-295 CNS
[50] = system: OVCAR-8 ovarian
[51] = system: OVCAR-4 ovarian
[52] = system: SK-OV-3 ovarian
[53] = system: SR leukemia
[54] = system: KM12 colon
[55] = system: A498 renal
[56] = system: HCT-15 colon
[57] = system: COLO 205 colon
[58] = system: 786-0 renal

## CN(Cc1ccc(Cl)cc1)c1ccc(CO)c(Cl)c1
[1]
  GI50: 14 µM
  TGI: 28.8 µM
[2]
  GI50: 5.42 µM
  TGI: 17.3 µM
[3]
  GI50: 0.515 µM
  TGI: 2.45 µM
[4]
  GI50: 8.55 µM
  TGI: 22.6 µM
[5]
  GI50: 0.268 µM
  TGI: 1.68 µM
[6]
  GI50: 3.01 µM
  TGI: 15.9 µM
[7]
  GI50: 1.34 µM
  TGI: 12.5 µM
[8]
  GI50: 18 µM
  TGI: 66.2 µM
[9]
  GI50: 0.365 µM
  TGI: 2.24 µM
[10]
  GI50: 16.8 µM
  TGI: 51.6 µM
[11]
  GI50: 3.23 µM
  TGI: 14.5 µM
[12]
  GI50: 5.98 µM
  TGI: 23 µM
[13]
  GI50: 13.5 µM
  TGI: 35.3 µM
[14]
  GI50: 7.06 µM
  TGI: 26.4 µM
[15]
  GI50: 0.115 µM
  TGI: 0.285 µM
[16]
  GI50: 0.764 µM
  TGI: 5.4 µM
[17]
  GI50: 11 µM
  TGI: 29.9 µM
[18]
  GI50: 12.5 µM
  TGI: 39.8 µM
[19]
  GI50: 13.4 µM
  TGI: 31.2 µM
[20]
  GI50: 5.51 µM
  TGI: > 52.3 µM
[21]
  GI50: 5.83 µM
  TGI: 23.6 µM
[22]
  GI50: 6.7 µM
  TGI: 22.6 µM
[23]
  GI50: 10.8 µM
  TGI: 25.5 µM
[24]
  GI50: 12.8 µM
  TGI: 31 µM
[25]
  GI50: 3.16 µM
  TGI: 16.1 µM
[26]
  GI50: 13.5 µM
  TGI: 27.9 µM
[27]
  GI50: 0.445 µM
  TGI: 8.75 µM
[28]
  GI50: 12.3 µM
  TGI: 25.1 µM
[29]
  GI50: 3.85 µM
  TGI: 19.5 µM
[30]
  GI50: 13.4 µM
  TGI: 29.2 µM
[31]
  GI50: 4.48 µM
  TGI: 16.7 µM
[32]
  GI50: 3.57 µM
  TGI: 16.8 µM
[33]
  GI50: 5.31 µM
  TGI: 19.9 µM
[34]
  GI50: 1.35 µM
  TGI: 11.1 µM
[35]
  GI50: 9.36 µM
  TGI: 22.1 µM
[36]
  GI50: 14.2 µM
  TGI: 29.5 µM
[37]
  GI50: 0.33 µM
  TGI: 2.2 µM
[38]
  GI50: 0.644 µM
  TGI: 4.67 µM
[39]
  GI50: 3.79 µM
  TGI: > 65.7 µM
[40]
  GI50: 5.28 µM
  TGI: 42.4 µM
[41]
  GI50: 5.75 µM
  TGI: 18.3 µM
[42]
  GI50: 15.1 µM
  TGI: > 66.3 µM
[43]
  GI50: 8 µM
  TGI: 25.4 µM
[44]
  GI50: 4.06 µM
  TGI: 16.3 µM
[45]
  GI50: 8.33 µM
  TGI: 22.3 µM
[46]
  GI50: 3.74 µM
  TGI: 13.2 µM
[47]
  GI50: 1.43 µM
  TGI: 12 µM
[48]
  GI50: 3.9 µM
  TGI: 17.8 µM
[49]
  GI50: 2.48 µM
  TGI: 16 µM
[50]
  GI50: 7.05 µM
  TGI: 27.4 µM
[51]
  GI50: 2.27 µM
  TGI: 14 µM
[52]
  GI50: 5.18 µM
  TGI: 16.9 µM
[53]
  GI50: 13.1 µM
  TGI: 54.8 µM
[54]
  GI50: 13 µM
  TGI: 27.2 µM
[55]
  GI50: 0.0464 µM
  TGI: 0.179 µM
[56]
  GI50: 5.42 µM
  TGI: 39.5 µM
[57]
  GI50: 5.95 µM
  TGI: 18.1 µM
[58]
  GI50: 3.82 µM
  TGI: 17 µM
